Reference: US20180282323A1, “Mesoionic imidazole derivatives as insecticides” (BAYER CROPSCIENCE AKTIENGESELLSCHAFT, priority 2015, published 2018)
Where two headings read alike, the source gives them in different places.

Assays:
[1] = system: Myzus persicae; experiment: Myzus persicae oral test; type: in vivo; settings: application rate 20 ppm, oral uptake through parafilm, after 5 days; for pest or weed control at 20 ppm: Myzus persicae, 120 h, read-out: efficacy
Procedure: Myzus persicae—Oral Test Solvent: 100 parts by weight of acetone
To produce an appropriate active ingredient formulation, 1 part by weight of active ingredient is dissolved with the stated parts by weight of solvent and made up with water until the desired concentration is attained.
50 μl of the active ingredient formulation are transferred into microtitre plates and made up to a final volume of 200 μl with 150 μl of IPL41 insect medium (33%+15% sugar). Subsequently, the plates are sealed with parafilm, which a mixed population of green peach aphids (Myzus persicae) within a second microtitre plate is able to puncture and imbibe the solution through it.
After 5 days, the efficacy in % is determined. 100% means that all the aphids have been killed; 0% means that no aphids have been killed.

[2] = system: Myzus persicae; experiment: Myzus persicae spray test (Chinese cabbage leaf discs); type: in vivo; settings: application rate 500 g/ha, after 6 days
Procedure: Myzus persicae—Spray Test Solvent: 78 parts by weight of acetone • • 1.5 parts by weight of dimethylformamide Emulsifier: alkylaryl polyglycol ether
To produce a suitable active ingredient formulation, 1 part by weight of active ingredient is dissolved with the stated parts by weight of solvent and made up with water containing an emulsifier concentration of 1000 ppm until the desired concentration is attained. To produce further test concentrations, the formulation is diluted with emulsifier-containing water.
Discs of Chinese cabbage leaves (Brassica pekinensis) infested by all stages of the green peach aphid (Myzus persicae) are sprayed with an active ingredient formulation of the desired concentration.
After 6 days, the efficacy in % is determined. 100% means that all the aphids have been killed; 0% means that no aphids have been killed.

[3] = log P by HPLC on reversed-phase column (EEC directive 79/831 Annex V.A8); type: physicochemical; settings: for log p: HPLC on reversed-phase column (footnote a); for log p a): HPLC on reversed-phase column
How it was run: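 Reversed-phase (C18) HPLC at 43° C, following EEC directive 79/831 Annex V.A8.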

| SMILES | efficacy [1] [%] | log p a) [3] | further results |
| --- | --- | --- | --- |
| CSCC(=O)c1c([O-])n(Cc2ccc(Cl)nc2)c2cccc[n+]12 [Example I-1-005] | 100 | – | efficacy [2]: 90%; log p [3]: 1.62 |
| O=C(Cn1cc(Cl)cn1)c1c([O-])n(Cc2cnc(Cl)s2)c2cccc[n+]12 [Example I-1-010] | 100 | – | efficacy [2]: 90%; log p [3]: 2.09 |
| N#Cc1cnn(CC(=O)c2c([O-])n(Cc3cnc(Cl)s3)c3cccc[n+]23)c1 [Example I-1-015] | 100 | – | efficacy [2]: 90%; log p [3]: 1.68 |
| C[S+]([O-])CC(=O)c1c([O-])n(Cc2ccc(Cl)nc2)c2cccc[n+]12 (centres unmarked) [Example I-1-022] | 100 | – | efficacy [2]: 100%; log p [3]: 0.91 |
| COCC(=O)c1c([O-])n(Cc2cncnc2)c2cccc[n+]12 [Example I-1-023] | 100 | – | efficacy [2]: 100%; log p [3]: 0.4 |
| CC(C)OCC(=O)c1c([O-])n(Cc2cnc(Cl)s2)c2cccc[n+]12 [Example I-1-026, 1-[(2-chloro-1,3-thiazol-5-yl)methyl]-3-(isopropoxyacetyl)-1H-imidazo[1,2-a]pyridin-4-ium-2-olate] | – | – | pest or weed control at 20 ppm [1]: 100%; efficacy [2]: 100%; chromatographic logP [3]: 1.73; chromatographic logP ([3]; pH 2.7): 1.8 |
| CC(=O)c1c([O-])n(Cc2cnc(Cl)s2)c2cccc[n+]12 [Example I-1-043, 3-Acetyl-1-[(2-chloro-1,3-thiazol-5-yl)methyl]-1H-imidazo[1,2-a]pyridin-4-ium-2-olate] | – | – | pest or weed control at 20 ppm [1]: 100%; efficacy [2]: 100%; chromatographic logP [3]: 1.29; chromatographic logP ([3]; pH 2.7): 1.29 |
| CC(=O)Nc1ccn(CC(=O)c2c([O-])n(Cc3cnc(Cl)s3)c3cccc[n+]23)n1 [Example I-1-056] | 90 | – | efficacy [2]: 90%; log p [3]: 1.21 |
| CCCOCC(=O)c1c([O-])n(Cc2cncnc2)c2cccc[n+]12 [Example I-1-061] | 100 | – | efficacy [2]: 100%; log p [3]: 1.08 |
| Cc1cccc2n(Cc3cnc(Cl)s3)c([O-])c(C(=O)CCl)[n+]12 [Example I-1-080] | – | – | efficacy [2]: 100%; log p [3]: 1.81 |
| COC(=O)c1c([O-])n(Cc2cnc(Cl)s2)c2cccc[n+]12 [Example I-1-085, 1-[(2-Chloro-1,3-thiazol-5-yl)methyl]-3-(methoxycarbonyl)-1H-imidazo[1,2-a]pyridin-4-ium-2-olate] | – | – | efficacy [2]: 90%; chromatographic logP [3]: 1.23; chromatographic logP ([3]; pH 2.7): 1.23 |
| Cc1ccc[n+]2c(C(=O)NC(C)(C)C)c([O-])n(Cc3cnc(Cl)s3)c12 [Example I-1-213] | 100 | 2.69 | – |
| COC(=O)c1c([O-])n(Cc2ccc(F)nc2)c2c(C)ccc[n+]12 [Example I-1-214] | 100 | 1.21 | – |
| COC(=O)c1c([O-])n(Cc2cnc(C)cn2)c2cccc[n+]12 [Example I-1-215] | 100 | 0.80 | – |
| Cc1cnc(Cn2c([O-])c(C(=O)Nc3ccccc3)[n+]3ccccc23)cn1 [Example I-1-218] | 100 | 2.05 | – |
| Cc1ccc[n+]2c(C(=O)Nc3ccc(F)cc3)c([O-])n(Cc3ccc(Cl)nc3)c12 [Example I-1-219] | 100 | 2.9 | – |
| Cc1ccc[n+]2c(C(=O)NC3CC3)c([O-])n(Cc3ccc(F)nc3)c12 [Example I-1-222] | 100 | 1.58 | – |
| Cc1ncc(Cn2c([O-])c(C(=O)NC3CC3)[n+]3cccc(C)c23)s1 [Example I-1-223] | 100 | 1.45 | – |
| CCNC(=O)c1c([O-])n(C(C)c2ccc(Cl)nc2)c2cccc[n+]12 (centres unmarked) [Example I-1-228] | 100 | 1.72 | – |
| CC(c1ccc(Cl)nc1)n1c([O-])c(C(=O)Nc2ccccc2)[n+]2ccccc12 (centres unmarked) [Example I-1-229] | 100 | 2.8 | – |
| O=C(Nc1ccccc1Cl)c1c([O-])n(Cc2cnc(Cl)s2)c2cccc[n+]12 [Example I-1-234] | 100 | 3.29 | – |
| COc1ccc(NC(=O)c2c([O-])n(Cc3cnc(Cl)s3)c3cccc[n+]23)cc1 [Example I-1-236] | 100 | 2.62 | – |
| COc1ccc(NC(=O)c2c([O-])n(C(C)c3ccc(Cl)nc3)c3cccc[n+]23)cc1 (centres unmarked) [Example I-1-237] | 90 | 2.66 | – |
| CC(c1ccc(Cl)nc1)n1c([O-])c(C(=O)NCC(F)(F)F)[n+]2ccccc12 (centres unmarked) [Example I-1-241] | 100 | 2.2 | – |

| SMILES | efficacy [1] [%] | log p a) [3] | further results |
| --- | --- | --- | --- |
| CCNC(=O)c1c([O-])n(Cc2cnc(C)cn2)c2cccc[n+]12 [Example I-1-244] | 90 | 1.07 | – |
| CNC(=O)c1c([O-])n(Cc2cnc(C)cn2)c2cccc[n+]12 [Example I-1-245] | 90 | 0.76 | – |
| CCCNC(=O)c1c([O-])n(C(C)c2ccc(Cl)nc2)c2cccc[n+]12 (centres unmarked) [Example I-1-249] | 100 | 2.02 | – |
| CC(c1ccc(Cl)nc1)n1c([O-])c(C(=O)NCC2CC2)[n+]2ccccc12 (centres unmarked) [Example I-1-250] | 100 | 2.12 | – |
| Cc1ccc[n+]2c(C(=O)Cn3cccn3)c([O-])n(Cc3cnc(Cl)s3)c12 [Example I-1-251] | 100 | 1.69 | – |
| Cc1ccc[n+]2c(C(=O)Nc3ncccn3)c([O-])n(Cc3ccc(Cl)nc3)c12 [Example I-1-265] | 90 | 1.51 | – |
| Cc1cnc(Cn2c([O-])c(C(=O)Nc3c(F)cccc3F)[n+]3ccccc23)cn1 [Example I-1-269] | 100 | 1.75 | – |
| CC(c1ccc(Cl)nc1)n1c([O-])c(C(=O)NC2(C#N)CC2)[n+]2ccccc12 (centres unmarked) [Example I-1-271] | 100 | 1.69 | – |
| CC(c1ccc(Cl)nc1)n1c([O-])c(C(=O)Nc2c(F)cccc2F)[n+]2ccccc12 (centres unmarked) [Example I-1-272] | 100 | 2.46 | – |
| CCNC(=O)c1c([O-])n(Cc2cnc(Cl)cn2)c2cccc[n+]12 [Example I-1-278] | 100 | 1.51 | – |
| O=C(Nc1ccccc1F)c1c([O-])n(Cc2cnc(Cl)s2)c2cccc[n+]12 [Example I-1-286] | 100 | 2.95 | – |
| CC(c1cnc(Cl)s1)n1c([O-])c(C(=O)NC2(C#N)CC2)[n+]2ccccc12 (centres unmarked) [Example I-1-289] | 100 | 1.86 | – |
| Cc1ccc[n+]2c(C(=O)COC3CCCCC3)c([O-])n(Cc3cnc(Cl)s3)c12 [Example I-1-294] | 90 | 2.77 | – |
| COc1cccc(NC(=O)c2c([O-])n(Cc3ccc(Cl)nc3)c3cccc[n+]23)c1 [Example I-1-299] | 100 | 2.55 | – |
| Cc1ccc[n+]2c(C(=O)COC3CCCC3)c([O-])n(Cc3cnc(Cl)s3)c12 [Example I-1-302] | 100 | 2.45 | – |
| C#Cc1cccnc1NC(=O)c1c([O-])n(Cc2cnc(Cl)s2)c2cccc[n+]12 [Example I-1-303] | – | 1.3 | efficacy [2]: 90% |
| O=C(Nc1cc(F)ccc1F)c1c([O-])n(Cc2cnc(Cl)s2)c2cccc[n+]12 [Example I-1-306] | 100 | 3.23 | – |
| N#Cc1cccc(F)c1NC(=O)c1c([O-])n(Cc2cnc(Cl)s2)c2cccc[n+]12 [Example I-1-307] | – | 2.2 | efficacy [2]: 90% |
| O=C(NCC(F)(F)F)c1c([O-])n(Cc2ccc(Cl)nc2)c2cccc[n+]12 [Example I-1-312] | 100 | 1.98 | – |
| O=C(Nc1ncccc1F)c1c([O-])n(Cc2ccc(Cl)nc2)c2cccc[n+]12 [Example I-1-317] | 100 | 1.49 | – |
| COc1ccccc1NC(=O)c1c([O-])n(Cc2ccc(Cl)nc2)c2cccc[n+]12 [Example I-1-326] | 100 | 2.55 | – |
| COC(=O)c1c([O-])n(Cc2ccc(Cl)nc2)c2nccc[n+]12 [Example I-4-001, 1-[(6-Chloropyridin-3-yl)methyl]-3-(methoxycarbonyl)-1H-imidazo[1,2-a]pyrimidin-4-ium-2-olate] | – | – | pest or weed control at 20 ppm [1]: 100%; chromatographic logP [3]: 1.15; chromatographic logP ([3]; pH 2.7): 1.15 |
| O=C(CCl)c1c([O-])n(Cc2ccc(Cl)nc2)c2scc[n+]12 [Example I-5-001, 5-(Chloroacetyl)-7-[(6-chloropyridin-3-yl)methyl]-7H-imidazo[2,1-b][1,3]thiazol-4-ium-6-olate] | – | – | pest or weed control at 20 ppm [1]: 100%; chromatographic logP [3]: 1.33; chromatographic logP ([3]; pH 2.7): 1.33 |
| O=C(CCl)c1c([O-])n(Cc2cnc(Cl)s2)c2scc[n+]12 [Example I-5-002] | 100 | – | log p^a) ([3]; Table 3; HPLC reversed-phase C18, 43° C.; footnote a) acidic range pH 2.7): 1.46 |
